The record followed here is US6582902B1, “Method for deriving epitopes” (priority 1992, dated 2003).

The test system of assay [1] is anti-g10 serum. The experiment in a line: Competition for immunoprecipitation of [32P] D10 RNA by anti-g10 serum. The following applies: FIG. 5A (125 mg competitor) and FIG. 5B (g10 peptide 37-444 nM). It is filed as binding, rabbit. As for the experimental part:
[^32P] labeled in vitro transcribed D10 RNA or [^35S] labeled in vitro translated g10 fusion protein (g10-U1A) was immunoprecipitated by the anti-g10 serum in the presence of various competitors. D10 RNA and g10 fusion protein bound in the immunoprecipitations were analyzed using denaturing polyacrylamide gels and autoradiography. Panel A: D10 RNA immunoprecipitations with: 1, no competitor; 2, no g10 antiserum added; 3, 125 mg of g10 peptide; 4, 125 mg of bovine serum albumin; 5, 125 mg of control peptide (sequence ETPEEREERRR) (SEQ ID NO:7). Panel B: D10 immunoprecipitations after incubation with increasing amounts of g10 peptide. Lanes: 1, no competitor; 2, 37 nM; 3, 74 nM; 4, 148 nM; 5, 222 nM; 6, 444 nM. Panel C: immunoprecipitations of a g10 containing fusion protein (g10-U1-A) using various competitors. Lanes: 1, no competitor; 2, preimmune rabbit serum; 3, 7.4 nM g10 peptide; 4, 0.7 nM D10 RNA; 5, 0.7 nM unrelated RNA (cDNA encoding loop sequence: ACGTTCGTCG)(SEQ ID NO:8). Panel D: immunoprecipitation of g10-U1A fusion protein after incubation with increasing amounts of D10 RNA. Lanes: 1, no competitor; 2, 0.0175 nM; 3, 0.035 nM; 4, 0.35 nM; 5, 0.7 nM; 6, 1.05 nM.
Competition experiments were performed by addition of the various competitors to [^32P] labeled RNA or [^35S] labeled in vitro translated g10-snRNP-A fusion protein prior to immunoprecipitation. Bound RNAs were analyzed on 6% denaturing acrylamide gels and proteins on 10% SDS-PAGE gels, followed by autoradiography. Antibody-RNA complexes were formed in the presence of competitor g10 peptide or control peptide (FIG. 5A), or with increasing amounts of g10 peptide (FIG. 5B), and uncompeted RNA was recovered by immunoprecipitation.

For assay [2], the system named is g10-reactive antibodies (anti-g10 serum). The experiment in a line: Competition for immunoprecipitation of [35S] g10-U1-A fusion protein by anti-g10 serum. As to conditions: FIG. 3B lanes 8-12; g10 peptide 27.8-750 nM; control peptide 25 mM. It is filed as binding, rabbit. An excerpt: (§1) Panel A: Western blot of E. coli extracts containing various U1-A protein constructs. All extracts were produced from induced E. coli cells containing recombinant pET-8c T7 expression vectors in accordance with known techniques. See F. Studier et al., Meth. Enzym. 185, 60-89 (1991). U1-A cDNA was cloned into pET-8c either attached or not attached to the g10 peptide. Lanes: 1, 5 and 9: the pET-8c vector alone; 2, 6 and 10: g10-U1-A protein; 3, 7 and 11: U1-A protein; 4, 8 and 12: total HeLa cell extracts. Lanes 1-4 were probed with pre-immune rabbit serum; lanes 5-8 were probed with anti-g10 serum; and lanes 9-12 were probed with a U1/U2-specific autoimmune serum (patient). EW reacts with U1 RNA, U1-70K (70 kDa), U1-A (31 kDa) and U2-A′ (28.4 kDa) (lane 12). Panel B: Immunoprecipitation and competition analysis of [^35S]-methionine-labeled U1-A and g10-U1-A proteins expressed by in vitro transcription, and subsequent translation in rabbit reticulocyte lysates. Lanes: 1 and 2 show the amount of U1-A and g10-U1-A translation product, respectively, added to each immunoprecipitation reaction; 3: blank; 4 and 5: U1-A and g10-U1-A precipitated with serum EW (reactive with U1-A); 6 and 7: U1-A and g10-U1-A, respectively, precipitated with anti-g10 serum. In lanes 8-12, g10-U1-A was precipitated with anti-g10 serum in the presence of varying amounts of competitors as follows: lanes 8-11 contained the g10 peptide at concentrations of 27.8, 83.3, 250 and 750 nM, respectively; lane 12 contained a control peptide (sequence GKSRGFAFVEFK-amide) (SEQ ID NO:4) at a concentration of 25 mM. The faint lower band in all lanes represents either a degradation product or a premature translation termination product and is seen consistently in U1-A translations.
[^32P] labeled in vitro transcribed D10 RNA or [^35S] labeled in vitro translated g10 fusion protein (g10-U1A) was immunoprecipitated by the anti-g10 serum in the presence of various competitors. D10 RNA and g10 fusion protein bound in the immunoprecipitations were analyzed using denaturing polyacrylamide gels and autoradiography. […]

Assay [3] concerns anti-g10 serum. The experiment in a line: Western blot of E. coli / HeLa extracts probed with anti-g10 serum. It is filed as binding, rabbit. As to conditions: FIG. 3A lanes 5-8; serum diluted 1:2000.
From the text: as §1
(§2) A thirteen amino acid peptide was synthesized representing the amino-terminus of g10-fusion proteins expressed from the Studier T7 expression vectors (F. Studier et al., Meth. Enzym. 185, 60-89 (1991)) (peptide sequence: MASMTGGQQMGRC-carboxyl amide (SEQ ID NO:11), purchased from Multiple Peptide Systems). […]
On the technique in general: In western blotting, separated proteins are transferred to a membrane and probed.

Assay [4] relates to U1/U2-specific autoimmune serum (patient). The experiment in a line: Western blot probed with control anti-U1-A autoimmune serum (patient). The following applies: FIG. 3A lanes 9-12. It is filed as binding, human.
From the text: as §1, §2

For assay [5], the system named is anti-g10 serum. The experiment in a line: Immunoprecipitation of [35S]-labeled in vitro translated proteins with anti-g10 serum. The following applies: FIG. 3B lanes 6-7. It is filed as binding, rabbit.
From the text: as §1, with “In lanes 8-12, g10-U1-A was precipitated with anti-g10 serum in the presence of varying amounts of competitors as follows: lanes 8-11 contained the g10 peptide at concentrations of 27.8, 83.3, 250 and 750 nM, respectively; lane 12 contained a control peptide (sequence GKSRGFAFVEFK-amide) (SEQ ID NO:4) at a concentration of 25 mM. The faint lower band in all lanes represents either a degradation product or a premature translation termination product and is seen consistently in U1-A translations.” left out

No end group written: not given here.

As for “bovine serum albumin: bovine serum albumin used as control competitor”, the “effect of competitor on D10 RNA precipitation by the anti-g10 serum” value (“effect of competitor” for short) in the assay on anti-g10 serum [1] is listed as “neither bovine serum albumin nor an unrelated peptide showed any effect”.
Take “MASMTGGQQMGRC-carboxyl amide (MASMTGGQQMGRC-NH2) [g10 peptide, reference compound]”: the “effect of competitor” value in the assay with anti-g10 serum [1] is “inhibited RNA binding”. The “inhibition of anti-g10 antibody binding to g10-U1-A by free peptide” value in assay [2] is on record as “inhibited”.
Regarding “g10-U1-A fusion protein: g10-tagged U1-snRNP A protein”, the “reactivity with anti-g10 serum in Western blot” value (shortened to “reactivity with anti-g10 serum”) in the assay on anti-g10 serum [3] is reported as “reacted”. For the same substance, the “reactivity with control anti-U1-A serum in Western blot” value in assay [4] is listed as “reacted”. In the assay with anti-g10 serum [5], the “precipitation by anti-g10 serum (immunoprecipitation)” value was “precipitated”.
For the substance “authentic HeLa cell U1-A: endogenous U1-A (31 kDa) in total HeLa cell extracts”, in the assay on anti-g10 serum [3], the “reactivity with anti-g10 serum” value is reported as “not”. For the same substance, the “reactivity with control anti-U1-A serum in Western blot” value in assay [4] is listed as “reacted”.
Take “recombinant U1-A: U1-A protein expressed without the g10 peptide”: the “reactivity with anti-g10 serum” value in the assay on anti-g10 serum [3] is “not”. Besides, the “reactivity with control anti-U1-A serum in Western blot” value in assay [4] is “reacted”. The “precipitation by anti-g10 serum (immunoprecipitation)” value in the assay on anti-g10 serum [5] is “not”.
For ETPEEREERRR [unrelated peptide], the “effect of competitor” value in the assay with anti-g10 serum [1] is “neither bovine serum albumin nor an unrelated peptide showed any effect”.
